Patent US6159940A, “Method for modulating hemopoiesis” (Immunotech Developments Inc., priority 1999, dated 2000)
Where a SMILES comes first, the peptide text is derived from it.

Assays:
CFU-S-8 and CFU-S-12 = assay: Cytostatic (Cytosine-Arabinoside)-induced cytopenia: karyocytes, CFU-S-8, CFU-S-12 in bone marrow; assay type: in vivo, mice; details: donor bone marrow; CA 20 mg/kg i.p. once; N 10 μg/kg once daily, three injections
Method: Used as a cytostatic, Cytosine-Arabinoside (CA) was intraperitoneally injected to donor mice once in the dose of 20 mg/kg. The peptide was given according to the following scheme: 10 μg/kg once daily, three injections starting from the first hour after CA. Intact mice received H-Ile-Glu-Trp-OH in the same doses and according to the same schedule. On day 8 after the cytostatic injection, determined were karyocyte count in the donor bone marrow and the content of hemopoietic progenitors of different polipotencies: committed CFU-S-8 and CFU-S-12. CFU-8 are committed stem cells which later undergo differentiation. CFU-12 are the polypotent cells, from which stem cells can be recruited (i.e. they maintain the pool of stem cells). This is a slowly proliferating cell population, mainly in G phase. That is why it is important to evaluate the effect of a preparation on the pools of both committed (CFU-8) and polypotent (CFU- 12) cells. To this end, bone marrow was extracted from donor's femoral bones and injected to lethally irradiated recipients. After the cell injections, every test group was divided into 2 subgroups: some animals were killed on day 8, the other on day 12. Spleens were taken out and the colonies were counted. The tests were carried out on 105 mice.

Thymoma EL-4 cells = Thymoma EL-4 cells incubated with peptide and oxyurea, transplanted to mice: tumor growth and survival; assay type: in vivo, C57B1 mice
Method: The Thymoma EL-4 cells were extracted from the abdomen cavity of C57B1 mice at the 7th day after transplantation. The suspension was washed by centrifugation in the medium RPMI. Then the cells were resuspended in the growth medium (RPMI+10% of embryo serum+0.1% penicillin/streptomycin) and were split in culture flasks 5 ml each ([…] per flask). 2 mg of the preparation were added (20 μl) to each probe. After 18 hours of incubation (37 degrees Celsius CO2), OU was added to the half of probes (1 mg per 5 ml). Incubation was done for 1 more hour in the same conditions and then cells were washed out by centrifugation in the medium RPMI. The precipitated cells were resuspended in calculation 1 ml per 0.2 ml of RPMI medium and then transplanted to the mice C57B1 under the back skin.
The taking of the measurements of the size of the tumor was started after the knot became visible. The tumor was measured every day until it was impossible to measure. The survival ability of the mice was examined during 60 days after transplantation. Mice that survived after this period were considered to be cured. Each experimental group consisted of 6 animals.

CFU-S = assay: Spleen colony formation from RAMBS-treated bone marrow in lethally irradiated mice; assay type: in vivo, (CBA×C57BL)F1 female mice; details: RAMBS-treated bone marrow + preparation, lethally irradiated mice
Source text: (CBA×C57BL)F1 female mice (n=2500), 2-months old, weighing about 20 g, were used in the experiment.
As is known, there is a close relationship between T-cells and hemopoietic progenitors. It was shown that, along with colony-forming units of spleen (CFU-S), thymocytes participate in colony formation of spleens of irradiated mice by controlling proliferation of the hemopoietic progenitor cells. The fact was established in a test system, which allowed a selective removal of accessory T-cells from bone marrow with the help of rabbit antimouse brain antiserum (RAMBS) and their substitution with other factors. Aliquots (0.1 ml) of bone marrow suspension (2×10^7 cells), RAMBS, and medium 199 were mixed and incubated for 1 hour at 37° C. Then the cells were washed with centrifuging, resuspended and injected to lethally irradiated mice.
According to the aforesaid scheme, instead of thymocytes mice received the peptide, H-Ile-Glu-Trp-OH injections 30 minutes before the injections of RAMBS-treated bone marrow suspension.

[1] = 60 days after transplantation of treated EL-4 cells

In the case of `Nc1ccn([C@@H]2O[C@H](CO)[C@@H](O)[C@@H]2O)c(=O)n1` [CA, Cytosine-Arabinoside, reference compound], the “Day 8 COUNT CFU-S-8” value (CFU-S-8 and CFU-S-12) is reported as 1270 ± 53, the “Day 8 COUNT CFU-S-12” value (CFU-S-8 and CFU-S-12) is reported as 1244 ± 71 and the “Day 8 COUNT Karyocytes” value (CFU-S-8 and CFU-S-12) is reported as 17.5 ± 0.8 × 10^6.
For `NC(=O)NO` [OU, oxyurea, reference compound], the “% of Survival” value (Thymoma EL-4 cells; [1]) was 0%, the “Number of Survived Mice From 6” value (Thymoma EL-4 cells; [1]) was 0/6 and the “delay in the tumor growth” value (Thymoma EL-4 cells; intact tumor cells treated with OU (FIG. 3)) was about 12 days. For the same compound, the “increase in lifetime versus control” value (Thymoma EL-4 cells; mice with Thymoma EL-4) was 5 days.
`N[C@@H](CCC(=O)O)C(=O)N[C@@H](Cc1c[nH]c2ccccc12)C(=O)O` [Thymogen, H-Glu-Trp-OH, reference compound] (H-Glu-Trp-OH) was tested, and the “Average Colony Count” value (CFU-S) was 2.9+/-0.3.
